# Measured values taken from ChEMBL document CHEMBL1148029, “Synthesis and radiopharmacological characterization of 2beta-carbo-2'-[18F]fluoroethoxy-3beta-(4-bromo-phenyl)tropane ([18F]MCL-322) as a PET radiotracer for imaging the dopamine transporter (DAT)” (Bioorg Med Chem, 2007).
# How the values were obtained:
# [1] = test system: Adrenal; assay: Biodistribution in Wistar rat adrenal gland at 300 uCi, iv after 60 mins; type: ADME, organism-based, Adrenal tissue; settings: in vivo, 1 h
# [2] = test system: Hippocampus; assay: Biodistribution in Wistar rat hippocampus at 300 uCi, iv after 240 mins; type: ADME, organism-based; settings: in vivo, 4 h
# [3] = test system: Femur; assay: Biodistribution in Wistar rat femur at 300 uCi, iv after 60 mins; type: ADME, organism-based; settings: in vivo, 1 h
# [4] = test system: Cortex; assay: Biodistribution in Wistar rat cortex at 300 uCi, iv after 240 mins; type: ADME, organism-based; settings: in vivo, 4 h
# [5] = test system: Plasma; assay: Metabolic stability in Wistar rat plasma assessed as polar metabolite level at 1 mCi, iv after 1.5 mins; type: ADME, organism-based; settings: in vivo, 0.025 h
# [6] = test system: Liver; assay: Biodistribution in Wistar rat liver at 300 uCi, iv after 240 mins; type: ADME, organism-based; settings: in vivo, 4 h
# [7] = test system: Hippocampus; assay: Biodistribution in Wistar rat hippocampus at 300 uCi, iv after 60 mins in presence of GBR-12909; type: ADME, organism-based; settings: in vivo, 1 h
smiles,measurement,setting,value
CN1C2CCC1C(C(=O)OCC[18F])C(c1ccc(Br)cc1)C2 (configuration not stated),Drug uptake,[1],0.58 % ID/g
same,Drug uptake,[2],0.18 % ID/g
same,Drug uptake,[3],0.17 % ID/g
same,Drug uptake,[4],0.14 % ID/g
same,Stability,[5],21%
same,Drug uptake,[6],15.2 % ID/g
same,Drug uptake,[7],1.06 % ID/g
